Test results from the NIST ThermoML archive (doi:10.1021/je700145e).

Settings: Liquid

CCCCCCCCCCO [decan-1-ol]
Settings	mass density [kg/m3]
313.12 K, 1025 kPa	816.79
313.12 K, 2002 kPa	817.46
313.12 K, 2995 kPa	817.98
313.12 K, 4013 kPa	818.58
313.12 K, 5004 kPa	819.21
313.12 K, 5994 kPa	819.86
313.12 K, 7003 kPa	820.47
313.12 K, 7997 kPa	821.19
313.12 K, 9000 kPa	821.73
313.12 K, 9994 kPa	822.38
313.12 K, 10995 kPa	823.02
313.12 K, 11995 kPa	823.67
313.12 K, 12997 kPa	824.2
313.12 K, 13996 kPa	824.82
313.12 K, 14998 kPa	825.42
313.12 K, 15990 kPa	826.01
313.12 K, 16995 kPa	826.61
313.12 K, 17986 kPa	827.14
313.12 K, 18992 kPa	827.76
313.12 K, 19993 kPa	828.31
313.12 K, 20999 kPa	828.88
313.12 K, 21509 kPa	829.19
323.09 K, 1002 kPa	809.87
323.09 K, 2011 kPa	810.59
323.09 K, 3019 kPa	811.21
323.09 K, 4014 kPa	811.83
323.09 K, 5006 kPa	812.47
323.09 K, 6012 kPa	813.18
323.09 K, 7002 kPa	813.8
323.09 K, 8003 kPa	814.42
323.09 K, 9008 kPa	815.1
323.09 K, 10006 kPa	815.7
323.09 K, 11000 kPa	816.38
323.09 K, 12002 kPa	816.97
323.09 K, 13002 kPa	817.64
323.09 K, 14000 kPa	818.21
323.09 K, 15017 kPa	818.84
323.09 K, 16003 kPa	819.4
323.09 K, 17015 kPa	820.02
323.09 K, 18006 kPa	820.61
323.09 K, 19007 kPa	821.24
323.09 K, 20007 kPa	821.84
323.09 K, 21002 kPa	822.41
323.09 K, 22014 kPa	823.01
333.04 K, 1046 kPa	802.82
333.04 K, 2018 kPa	803.5
333.04 K, 3008 kPa	804.21
333.04 K, 4012 kPa	804.88
333.04 K, 5059 kPa	805.62
333.04 K, 6016 kPa	806.29
333.04 K, 7022 kPa	807
333.04 K, 8014 kPa	807.64
333.04 K, 9015 kPa	808.34
333.04 K, 10015 kPa	808.97
333.04 K, 11019 kPa	809.64
333.04 K, 12007 kPa	810.31
333.04 K, 13019 kPa	810.96
333.04 K, 14019 kPa	811.6
333.04 K, 15014 kPa	812.24
333.04 K, 16021 kPa	812.88
333.04 K, 17026 kPa	813.5
333.04 K, 18023 kPa	814.11
333.04 K, 19018 kPa	814.72
333.04 K, 20025 kPa	815.35
333.04 K, 21020 kPa	815.94
333.04 K, 22032 kPa	816.58
342.98 K, 1058 kPa	795.63
342.98 K, 2045 kPa	796.4
342.98 K, 3022 kPa	797.12
342.98 K, 4035 kPa	797.9
342.98 K, 5028 kPa	798.63
342.98 K, 6030 kPa	799.37
342.98 K, 7023 kPa	800.07
342.98 K, 8028 kPa	800.78
342.98 K, 9062 kPa	801.51
342.98 K, 10035 kPa	802.22
342.98 K, 11029 kPa	802.92
342.98 K, 12064 kPa	803.64
342.98 K, 13023 kPa	804.31
342.98 K, 14042 kPa	805
342.98 K, 15022 kPa	805.66
342.98 K, 16022 kPa	806.36
342.98 K, 17021 kPa	807
342.98 K, 18034 kPa	807.7
342.98 K, 19025 kPa	808.35
342.98 K, 20038 kPa	808.98
342.98 K, 21018 kPa	809.62
342.98 K, 22035 kPa	810.28
352.86 K, 1069 kPa	788.44
352.86 K, 2043 kPa	789.24
352.86 K, 3040 kPa	790.04
352.86 K, 4048 kPa	790.78
352.86 K, 5038 kPa	791.59
352.86 K, 6043 kPa	792.34
352.86 K, 7038 kPa	793.09
352.86 K, 8039 kPa	793.84
352.86 K, 9040 kPa	794.57
352.86 K, 10038 kPa	795.32
352.86 K, 11032 kPa	796.04
352.86 K, 12032 kPa	796.74
352.86 K, 13040 kPa	797.47
352.86 K, 14046 kPa	798.18
352.86 K, 15043 kPa	798.89
352.86 K, 16037 kPa	799.59
352.86 K, 17040 kPa	800.26
352.86 K, 18046 kPa	800.95
352.86 K, 19040 kPa	801.63
352.86 K, 20064 kPa	802.32
352.86 K, 21048 kPa	802.96
352.86 K, 22049 kPa	803.62
362.89 K, 1077 kPa	781.02
362.89 K, 2027 kPa	781.83
362.89 K, 3089 kPa	782.69
362.89 K, 4047 kPa	783.49
362.89 K, 5061 kPa	784.29
362.89 K, 6060 kPa	785.12
362.89 K, 7041 kPa	785.91
362.89 K, 8049 kPa	786.7
362.89 K, 9049 kPa	787.47
362.89 K, 10052 kPa	788.25
362.89 K, 11045 kPa	788.99
362.89 K, 12044 kPa	789.75
362.89 K, 13054 kPa	790.54
362.89 K, 14053 kPa	791.25
362.89 K, 15052 kPa	792
362.89 K, 16056 kPa	792.77
362.89 K, 17063 kPa	793.47
362.89 K, 18062 kPa	794.2
362.89 K, 19062 kPa	794.91
362.89 K, 20068 kPa	795.64
362.89 K, 21072 kPa	796.35
362.89 K, 22063 kPa	797.03

CCCCCCCCO [octan-1-ol]
Settings	mass density [kg/m3]
313.14 K, 1004 kPa	811.26
313.14 K, 2019 kPa	811.95
313.14 K, 3000 kPa	812.59
313.14 K, 4020 kPa	813.22
313.14 K, 4995 kPa	813.89
313.14 K, 6000 kPa	814.53
313.14 K, 7007 kPa	815.21
313.14 K, 8012 kPa	815.83
313.14 K, 8994 kPa	816.51
313.14 K, 10014 kPa	817.19
313.14 K, 11007 kPa	817.79
313.14 K, 12000 kPa	818.42
313.14 K, 12997 kPa	819.05
313.14 K, 14001 kPa	819.67
313.14 K, 14997 kPa	820.27
313.14 K, 16002 kPa	820.89
313.14 K, 17001 kPa	821.48
313.14 K, 17997 kPa	822.1
313.14 K, 19004 kPa	822.69
313.14 K, 20007 kPa	823.28
313.14 K, 21004 kPa	823.86
323.09 K, 1007 kPa	804.26
323.09 K, 2016 kPa	804.97
323.09 K, 3019 kPa	805.7
323.09 K, 4025 kPa	806.4
323.09 K, 5012 kPa	807.07
323.09 K, 6093 kPa	807.82
323.09 K, 7143 kPa	808.56
323.09 K, 8009 kPa	809.12
323.09 K, 8989 kPa	809.77
323.09 K, 10014 kPa	810.47
323.09 K, 11031 kPa	811.14
323.09 K, 12010 kPa	811.82
323.09 K, 13005 kPa	812.44
323.09 K, 14003 kPa	813.11
323.09 K, 15012 kPa	813.76
323.09 K, 16009 kPa	814.4
323.09 K, 17005 kPa	815.04
323.09 K, 18013 kPa	815.66
323.09 K, 19003 kPa	816.26
323.09 K, 20025 kPa	816.9
323.09 K, 21081 kPa	817.56
323.09 K, 22009 kPa	818.09
333.05 K, 1038 kPa	797.31
333.05 K, 2029 kPa	798.03
333.05 K, 2999 kPa	798.76
333.05 K, 4033 kPa	799.51
333.05 K, 5020 kPa	800.25
333.05 K, 6014 kPa	800.97
333.05 K, 7029 kPa	801.69
333.05 K, 8011 kPa	802.44
333.05 K, 9005 kPa	803.11
333.05 K, 10022 kPa	803.83
333.05 K, 11011 kPa	804.55
333.05 K, 12021 kPa	805.23
333.05 K, 13022 kPa	805.92
333.05 K, 14031 kPa	806.61
333.05 K, 15010 kPa	807.28
333.05 K, 16023 kPa	807.92
333.05 K, 17012 kPa	808.59
333.05 K, 18035 kPa	809.23
333.05 K, 19009 kPa	809.87
333.05 K, 20002 kPa	810.51
333.05 K, 21011 kPa	811.15
333.05 K, 22019 kPa	811.82
343.03 K, 1049 kPa	790.6
343.03 K, 2003 kPa	791.16
343.03 K, 2981 kPa	791.93
343.03 K, 4017 kPa	792.68
343.03 K, 5000 kPa	793.37
343.03 K, 6005 kPa	794.05
343.03 K, 7018 kPa	794.88
343.03 K, 8104 kPa	795.68
343.03 K, 9014 kPa	796.44
343.03 K, 10022 kPa	797.1
343.03 K, 11028 kPa	797.87
343.03 K, 11997 kPa	798.58
343.03 K, 13030 kPa	799.3
343.03 K, 14005 kPa	800
343.03 K, 15002 kPa	800.66
343.03 K, 16032 kPa	801.38
343.03 K, 17016 kPa	801.99
343.03 K, 18012 kPa	802.68
343.03 K, 19005 kPa	803.29
343.03 K, 20018 kPa	803.98
343.03 K, 21014 kPa	804.61
343.03 K, 22004 kPa	805.23
352.89 K, 1023 kPa	782.71
352.89 K, 2011 kPa	783.55
352.89 K, 3032 kPa	784.42
352.89 K, 4022 kPa	785.42
352.89 K, 5005 kPa	786.18
352.89 K, 6026 kPa	787.13
352.89 K, 7003 kPa	787.9
352.89 K, 8016 kPa	788.71
352.89 K, 9007 kPa	789.47
352.89 K, 10003 kPa	790.22
352.89 K, 11022 kPa	791
352.89 K, 12170 kPa	791.78
352.89 K, 13015 kPa	792.51
352.89 K, 14018 kPa	793.24
352.89 K, 15009 kPa	794
352.89 K, 16023 kPa	794.74
352.89 K, 17010 kPa	795.48
352.89 K, 18002 kPa	796.16
352.89 K, 19029 kPa	796.9
352.89 K, 20046 kPa	797.63
352.89 K, 21023 kPa	798.3
362.77 K, 1051 kPa	775.67
362.77 K, 2025 kPa	776.41
362.77 K, 3016 kPa	777.19
362.77 K, 4009 kPa	778.05
362.77 K, 4974 kPa	778.77
362.77 K, 6005 kPa	779.51
362.77 K, 7006 kPa	780.3
362.77 K, 8011 kPa	780.95
362.77 K, 9008 kPa	781.79
362.77 K, 10034 kPa	782.62
362.77 K, 11013 kPa	783.32
362.77 K, 11987 kPa	784.03
362.77 K, 13015 kPa	784.77
362.77 K, 14006 kPa	785.51
362.77 K, 14997 kPa	786.3
362.77 K, 16001 kPa	787.03
362.77 K, 17013 kPa	787.79
362.77 K, 17997 kPa	788.55
362.77 K, 19000 kPa	789.33
362.77 K, 20023 kPa	790.04
362.77 K, 21004 kPa	790.83
